Laboratory results as given in US8546563B2, “Compounds which modulate the CB2 receptor” (Boehringer Ingelheim International GmbH, priority 2007, dated 2013).

The compounds below were run against T1, human CB2R (Homo sapiens, UniProt P34972) (assay: CB2R mediated modulation of cAMP synthesis). Details: CHO cells expressing human CB2R; inhibition of forskolin-stimulated cAMP synthesis (agonist); read-out: CB2 EC50.
T1 construct: host or cells: CHO cells
Assay type: cell-based
Procedure: B. CB2R Mediated Modulation of cAMP Synthesis:
Compounds of the invention were evaluated for their CB2 agonist or inverse agonistic activity in accordance with the following experimental method.
CHO cells expressing human CB2R (Euroscreen) were plated at a density of 5000 cells per well in 384 well plates and incubated overnight at 37° C. After removing the media, the cells were treated with test compounds diluted in stimulation buffer containing 1 mM IBMX, 0.25% BSA and 10 uM Forskolin. The assay was incubated for 30 minutes at 37° C. Cells were lysed and the cAMP concentration was measured using DiscoverX-XS cAMP kit, following the manufacturer's protocol. In this setting, agonists will decrease forskolin induced production of cAMP while inverse agonists will further increase forskolin induced production of cAMP. EC50 of agonists were calculated as follows. The maximal amount of cAMP produced by forskolin compared to the level of cAMP inhibited by 1 uM CP55940 is defined as 100%. The EC50 value of each test compound was determined as the concentration at which 50% of the forskolin-stimulated cAMP synthesis was inhibited. Data was analyzed using a four-parameter logistic model. (Model 205 of XLfit 4.0).

T1 sequence (P34972 whole entry): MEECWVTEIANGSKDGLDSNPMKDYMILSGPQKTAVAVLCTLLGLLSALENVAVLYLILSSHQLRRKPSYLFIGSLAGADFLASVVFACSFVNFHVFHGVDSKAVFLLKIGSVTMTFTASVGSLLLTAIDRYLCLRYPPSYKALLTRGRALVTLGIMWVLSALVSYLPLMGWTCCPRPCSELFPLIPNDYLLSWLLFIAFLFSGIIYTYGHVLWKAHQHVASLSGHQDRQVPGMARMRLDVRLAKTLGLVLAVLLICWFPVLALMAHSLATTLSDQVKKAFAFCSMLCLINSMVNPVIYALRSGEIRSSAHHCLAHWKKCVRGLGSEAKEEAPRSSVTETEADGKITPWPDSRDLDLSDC

Row | SMILES | EC50 [µM]
1 | CCCCN(C)S(=O)(=O)C(C)(C)C(=O)Nc1cc(C(C)(C)C)on1 [Example 41, N-(5-tert-Butyl-isoxazol-3-yl)-2-(butyl-methyl-sulfamoyl)-2-methyl-propionamide] | 0.0017
2 | CCc1sc(NC(=O)C(C)(C)S(=O)(=O)N2CCC2)nc1-c1ccccc1 [Example 54, 2-(Azetidine-1-sulfonyl)-N-(5-ethyl-4-phenyl-thiazol-2-yl)-2-methyl-propionamide] | 0.0066
3 | CCCCNS(=O)(=O)C(C)(C)C(=O)Nc1nc(C(C)(C)C)cs1 [Example 25, 2-Butylsulfamoyl-N-(4-tert-butyl-thiazol-2-yl)-2-methyl-propionamide] | 0.032
4 | CC(C)(C(=O)Nc1nc(-c2ccc(Cl)cc2)cs1)S(=O)(=O)N1CCC1 | 0.0089
5 | CC(C)(C)c1cc(NC(=O)C(C)(C)S(=O)(=O)N2CCOCC2)on1 [Example 85, N-(3-tert-Butyl-isoxazol-5-yl)-2-methyl-2-(morpholine-4-sulfonyl)-propionamide] | 0.015
6 | CC(C)(C)c1cc(NC(=O)C(C)(C)S(=O)(=O)NC2CCCC2)no1 [Example 10, N-(5-tert-Butyl-isoxazol-3-yl)-2-cyclopentylsulfamoyl-2-methyl-propionamide] | 0.013
7 | CC(C)(C)c1cc(NC(=O)C(C)(C)S(=O)(=O)N2CCC(F)C2)sn1 (stereo not shown) | 0.083
8 | Cc1nc(NC(=O)C(C)(C)S(=O)(=O)N2CCC2)sc1C(C)(C)C | 0.0025
9 | CC(C)(C(=O)Nc1nc(C2CCCCC2)cs1)S(=O)(=O)N1CCC1 [Example 55, 2-(Azetidine-1-sulfonyl)-N-(4-cyclohexyl-thiazol-2-yl)-2-methyl-propionamide] | 0.022
10 | CCCNS(=O)(=O)C(C)(C)C(=O)Nc1cc(C(C)(C)C)on1 [Example 35, N-(5-tert-Butyl-isoxazol-3-yl)-2-methyl-2-propylsulfamoyl-propionamide] | 0.033
11 | CC(C)(C)c1cc(NC(=O)C(C)(C)S(=O)(=O)NC2CC2)no1 [Example 7, N-(5-tert-Butyl-isoxazol-3-yl)-2-cyclopropylsulfamoyl-2-methyl-propionamide] | 0.058
12 | Cn1nc(C(C)(C)C)cc1NC(=O)C(C)(C)S(=O)(=O)N1CCOCC1 | 0.079
13 | CC(C)(C(=O)Nc1nc2ccccc2s1)S(=O)(=O)N1CCC1 [Example 50, 2-(Azetidine-1-sulfonyl)-N-benzothiazol-2-yl-2-methyl-propionamide] | 0.026
14 | CC(C)(C(=O)Nc1nsc(-c2ccccc2)n1)S(=O)(=O)N1CCC1 | 0.072
15 | CC(C)(C(=O)Nc1nc(-c2ccc(F)cc2)cs1)S(=O)(=O)N1CCC1 | 0.019
16 | CC(C)(C(=O)Nc1nc2c(s1)CCCC2)S(=O)(=O)N1CCC1 | 0.062
17 | CC(C)(C)c1cc(NC(=O)C(C)(C)S(=O)(=O)N2CCCCC2)no1 [Example 9, N-(5-tert-Butyl-isoxazol-3-yl)-2-methyl-2-(piperidine-1-sulfonyl)-propionamide] | 0.0065
18 | CC(C)(C)c1cc(NC(=O)C(C)(C)S(=O)(=O)N2CCCC2)no1 [Example 6, N-(5-tert-Butyl-isoxazol-3-yl)-2-methyl-2-(pyrrolidine-1-sulfonyl)-propionamide] | 0.0013
19 | CC(C)c1cc(NC(=O)C(C)(C)S(=O)(=O)N2CCC2)on1 [Example 74, 2-(Azetidine-1-sulfonyl)-N-(3-isopropyl-isoxazol-5-yl)-2-methyl-propionamide] | 0.108
20 | CC(C)(C)c1cc(NC(=O)C(C)(C)S(=O)(=O)NC2CCCCC2)no1 [Example 8, N-(5-tert-Butyl-isoxazol-3-yl)-2-cyclohexylsulfamoyl-2-methyl-propionamide] | 0.0024

Row | SMILES | EC50 [µM]
21 | CC(C)(C)c1cccc(NC(=O)C(C)(C)S(=O)(=O)N2CCC2)c1 [Example 65, 2-(Azetidine-1-sulfonyl)-N-(3-tert-butyl-phenyl)-2-methyl-propionamide] | 0.017
22 | CC1CCCCN1S(=O)(=O)C(C)(C)C(=O)Nc1cc(C(C)(C)C)on1 (stereo not shown) | 0.097
23 | CC(C)(C(=O)Nc1nc(-c2cccs2)cs1)S(=O)(=O)N1CCC1 [Example 53, 2-(Azetidine-1-sulfonyl)-2-methyl-N-(4-thiophen-2-yl-thiazol-2-yl)-propionamide] | 0.041
24 | CCC(C)c1cc(NC(=O)C(C)(C)S(=O)(=O)N2CCC2)on1 (stereo not shown) [Example 73, 2-(Azetidine-1-sulfonyl)-N-(3-sec-butyl-isoxazol-5-yl)-2-methyl-propionamide] | 0.014
25 | CC(C)(C(=O)Nc1ccc(C(F)(F)F)cc1F)S(=O)(=O)N1CCC1 | 0.086
26 | CC(C)(C(=O)Nc1nnc(-c2ccccc2)[nH]1)S(=O)(=O)N1CCC(F)C1 (stereo not shown) | 0.0051
27 | CC(C)(C)c1cc(NC(=O)C(C)(C)S(=O)(=O)N2CCC(F)(F)CC2)no1 [N-(5-tert-Butyl-isoxazol-3-yl)-2-(4,4-difluoro-piperidine-1-sulfonyl)-2-methyl-propionamide] | 0.0025
28 | CC(C)(C)c1ccc(NC(=O)C(C)(C)S(=O)(=O)N2CCC2)cc1 [Example 58, 2-(Azetidine-1-sulfonyl)-N-(4-tert-butyl-phenyl)-2-methyl-propionamide] | 0.0031
29 | CC(C)(C(=O)Nc1nnc(-c2ccccc2)[nH]1)S(=O)(=O)N1CCOCC1 | 0.086
30 | CC(C)(C)c1cc(NC(=O)C(C)(C)S(=O)(=O)N2CCC2)ccn1 [Example 82, 2-(Azetidine-1-sulfonyl)-N-(2-tert-butyl-pyridin-4-yl)-2-methyl-propionamide] | 0.037
31 | CC(C)(C)c1csc(NC(=O)C(C)(C)S(=O)(=O)N2CCC2)n1 [Example 44, 2-(Azetidine-1-sulfonyl)-N-(4-tert-butyl-thiazol-2-yl)-2-methyl-propionamide] | 0.014
32 | Cc1sc(NC(=O)C(C)(C)S(=O)(=O)N2CCC2)nc1-c1ccc(F)cc1 | 0.017
33 | CC(C)(C)c1cc(NC(=O)C(C)(C)S(=O)(=O)N2CC(F)(F)C2)no1 | 0.005
34 | CCCCNS(=O)(=O)C(C)(C)C(=O)Nc1cc(C(C)(C)C)on1 [Example 24, N-(5-tert-Butyl-isoxazol-3-yl)-2-butylsulfamoyl-2-methyl-propionamide] | 0.01
35 | CC(C)(C)c1cc(NC(=O)C(C)(C)S(=O)(=O)N2CCC2)no1 [Example 5, 2-(Azetidine-1-sulfonyl)-N-(5-tert-butyl-isoxazol-3-yl)-2-methyl-propionamide] | 0.0036
36 | CC(C)(C)c1cc(NC(=O)C(C)(C)S(=O)(=O)N2CCOCC2)no1 [Example 40] | 0.047
37 | CC(C)(C)c1cc(NC(=O)C(C)(C)S(=O)(=O)N2CCC2)on1 [Example 47, 2-(Azetidine-1-sulfonyl)-N-(3-tert-butyl-isoxazol-5-yl)-2-methyl-propionamide] | 0.02
38 | CC(C)(C(=O)Nc1nnc(-c2ccccc2)[nH]1)S(=O)(=O)N1CCC1 | 0.011
39 | CN(c1ccccc1)S(=O)(=O)C(C)(C)C(=O)Nc1nc(C(C)(C)C)cs1 [N-(4-tert-Butyl-thiazol-2-yl)-2-methyl-2-(methyl-phenyl-sulfamoyl)-propionamide] | 0.042
40 | CC(C)(C)c1cc(NC(=O)C(C)(C)S(=O)(=O)N2CC[C@@H](F)C2)no1 | 0.0057
